The values that follow are results of earlier work, collected in patent US20060293293A1, “Salmeterol and ciclesonide combination” (Altana Pharma AG, priority 2003, published 2006).

For data set [1] the following is noted: compared with budesonide.

On to `CC(C)C(=O)OCC(=O)[C@@]12O[C@H](C3CCCCC3)O[C@@H]1C[C@H]1[C@@H]3CCC4=CC(=O)C=C[C@]4(C)[C@H]3[C@@H](O)C[C@@]12C` [Ciclesonide, [11β,16α(R)]-16,17[(Cyclohexylmethylen)bis(oxy)]-11-hydroxy-21-(2-methyl-1-oxoprop-oxy)pregna-1,4dien-3,20-dion], for which, in data set [1], the “anti-inflammatory activity relative to budesonide” value is listed as “higher” and the “systemic activity relative to budesonide” value was “three times lower”. The “metabolism by liver oxidases” value (liver oxidases) is reported as “very high”. Also, the “concentration of the drug in the lungs” value (lungs) is “high”. In addition, the “absorption after oral administration” value (oral administration) was “only moderately absorbed”. In addition, the plasma half-life result (plasma) is listed as “low plasma half-life”.
